Results published in patent US6303618A, “Cyclin dependent kinase inhibiting purine derivatives” (priority 1997, dated 2001).
Several values for one entry are separate records, joined by “and”; a condition that tells them apart may be missing. Identical values can stand only once. Like-named read-outs stand apart in the source and are kept apart here.

Assays:
[1] = Insolubility noted in the CDK assay; conditions: for insolubility in CDK2 assay: at 100 μM
CDK1 (p34 cdc2)/cyclin B = experiment: CDK inhibition assay (histone H1 kinase), CDK1; format: biochemical, starfish (Marthasterias glacialis); conditions: for IC50: CDK1, Table 1
Protocol: (§1) By way of example, however, a typical protocol is summarised below.
Histone H1 (type III-S (Sigma) 4° C.) 5 mg/ml in buffer C.
[^32 P]ATP […]: Make up using (multiples of) the following proportions:
DMSO cannot exceed 1% in the assay mixture. Inhibitors are added at 1/10 final assay volume and 10×final strength. DMSO stocks must therefore be diluted to 10×final desired concentration in ≤10% DMSO, ≥90% buffer C.
Start reaction in each tube at 30 second intervals by adding
5 ml [^32 P]ATP vortexing and placing in rack in waterbath at 30° C.
Terminate reaction after 10 min at 30 second intervals in tubes in same order by removing
25 ml reaction mix and spotting onto appropriately labelled filter, allowing to dry for 20-30 seconds and transferring to stirring 1% phosphoric acid.
Blank incubation is performed as above but without histone (add […] buffer C instead) Washing blank is […] ATP added directly to filter.

CDK4 = CDK4 (Homo sapiens, UniProt P11802); experiment: CDK inhibition assay, CDK4; format: biochemical; conditions: CDK4; Table 1; read-out: IC50 CDK4
Text: (§2) Apart from reference compounds, the compounds listed are accompanied by an NU reference or identification code number.
as §1

CDK2 = CDK2 (Homo sapiens, UniProt P24941); experiment: CDK inhibition assay, CDK2; format: biochemical; conditions: for IC50: CDK2, Table 1, read-out: IC50 CDK2
Text: as §2, §1

CDK = conditions: in words; cited from earlier work
[2] = system: many common kinases other than CDK's; conditions: in words; cited from earlier work
CDK6 = conditions: in words; cited from earlier work
[3] = read-out: % inhibition CDK2, at 100 μM
[4] = read-out: % inhibition CDK2, at 10 μM
[5] = at 100 μM, read-out: % inhibition CDK2

CDK4, sequence (P11802 whole entry, species assumed): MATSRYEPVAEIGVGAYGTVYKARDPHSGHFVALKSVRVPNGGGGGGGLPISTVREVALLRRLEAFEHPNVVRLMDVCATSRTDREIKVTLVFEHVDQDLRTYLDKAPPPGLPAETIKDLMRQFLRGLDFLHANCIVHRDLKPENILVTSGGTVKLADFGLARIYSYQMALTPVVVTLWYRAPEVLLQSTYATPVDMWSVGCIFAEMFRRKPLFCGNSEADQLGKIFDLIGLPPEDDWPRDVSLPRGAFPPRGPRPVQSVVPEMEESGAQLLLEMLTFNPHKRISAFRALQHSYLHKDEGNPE
CDK4, sequence (P24385 whole entry partner, species assumed): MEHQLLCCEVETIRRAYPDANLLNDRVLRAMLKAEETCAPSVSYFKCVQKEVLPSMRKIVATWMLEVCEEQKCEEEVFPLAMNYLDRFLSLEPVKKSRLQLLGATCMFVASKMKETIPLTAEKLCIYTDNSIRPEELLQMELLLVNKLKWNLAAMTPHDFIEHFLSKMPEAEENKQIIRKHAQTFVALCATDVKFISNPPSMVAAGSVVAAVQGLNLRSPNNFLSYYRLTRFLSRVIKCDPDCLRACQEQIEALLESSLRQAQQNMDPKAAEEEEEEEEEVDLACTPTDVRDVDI

## Nc1nc(N)c(N=O)c(OCC2CCCCC2)n1 [NU6027, 2,6-diamino-4-cyclohexyl-methyloxy-5-nitroso-pyrimidine]
[1]
  insolubility in CDK2 assay: Insol

## Nc1nc(OCC2CCCCO2)c2nc[nH]c2n1 (stereo not shown) [NU6019, 2-amino-6-(2-tetrahydropyranyl)-methyloxypurine]
CDK1 (p34 cdc2)/cyclin B; at 100 μM
  % inhibition CDK1: 51 ± 4%
CDK4
  IC50: > 100 µM
CDK2; [3]
  inhibition at 100 µM: 44 ± 2%

## Nc1nc(OCc2ccc3ccccc3c2)c2nc[nH]c2n1 [NU6018, 2-amino-6-(2-naphthyl)-methyloxypurine]
CDK1 (p34 cdc2)/cyclin B; at 10 μM
  % inhibition CDK1: 12 ± 4%
CDK4
  IC50: > 100 µM
CDK2; [4]
  inhibition at 10 µM: 9 ± 9%
[1]
  insolubility in CDK2 assay: Insol

## Nc1nc(OCC2CCCCC2)c2[nH]c(=O)[nH]c2n1 [NU6033, 2-Amino-6-cyclohexylmethyloxy-8-oxopurine]
[1]; at 10 μM, CDK1
  insolubility in CDK1 assay: insol.

## C=C(COc1nc(N)nc2[nH]cnc12)c1ccccc1 [NU2042, O^6-(2-Phenylallyl)guanine]
CDK1 (p34 cdc2)/cyclin B
  IC50: 40 µM
CDK4
  IC50: > 100 µM and 330 µM
CDK2
  IC50: 23.3 µM
CDK2; [3]
  inhibition at 100 µM: 75 ± 2%

## CC(C)CCOc1nc(N)nc2nc[nH]c12 [NU2053, O^6-(3'-Methyl)butylguanine]
CDK1 (p34 cdc2)/cyclin B
  IC50: 18 µM
CDK4
  IC50: 70 µM

## C=CCOc1nc(N)nc2nc[nH]c12 [NU2028, 2-amino-6-allyloxypurine]
CDK1 (p34 cdc2)/cyclin B
  IC50: 50 µM
CDK4
  IC50: > 100 µM

## Nc1nc(N)c(N)c(OCc2ccccc2)n1 [NU6040, 2,5,6-triamino-4-(benzylmethoxy) pyrimidine]
CDK2; [5]
  inhibition at 100 µM: 6 ± 10%

## Cn1cnc2c(NCc3ccccc3)nc(NCCO)nc21 [Olomoucine, 2-(2-hydroxyethylamino)-6-benzylamino-9-methyl-purine]
CDK
  mode of inhibition: competitive inhibitors for ATP binding
[2]
  inhibitory activity in relation to many common kinases other than CDK's: total lack of inhibitory activity
CDK6
  activity against CDK6: neither has been found to be active

## Nc1nc(OCC2CCCO2)c2nc[nH]c2n1 (stereo not shown) [NU6013, 2-amino-6-(2-tetrahydro-furanyl)-methyloxypurine]
CDK1 (p34 cdc2)/cyclin B; at 100 μM
  % inhibition CDK1: 48 ± 7%
CDK4
  IC50: 261 µM
CDK2
  IC50: > 500 µM
CDK2; [3]
  inhibition at 100 µM: 39 ± 5%

## C=C(C)[C@@H]1CC=C(COc2nc(N)nc3[nH]cnc23)CC1 [NU2077]
CDK1 (p34 cdc2)/cyclin B
  IC50: 22 µM
CDK4
  IC50: > 100 µM
CDK2; [4]
  inhibition at 10 µM: 16 ± 26%
CDK2; read-out: % inhibition CDK2, at 25 μM
  inhibition at 25 µM: 54%
[1]
  insolubility in CDK2 assay: insol

## Nc1nc(OCCC2CCCCC2)c2[nH]cnc2n1 [NU6023, 2-amino-6-cyclohexylethyloxypurine]
CDK1 (p34 cdc2)/cyclin B; at 100 μM
  % inhibition CDK1: 68 ± 6%
CDK4
  IC50: 69 µM
CDK2
  IC50: 47.6 µM
CDK2; [3]
  inhibition at 100 µM: 58 ± 6%

## Nc1nc(N)c(N=O)c(OCC2CC=CCC2)n1 (stereo not shown) [NU6045]
CDK1 (p34 cdc2)/cyclin B; at 10 μM
  % inhibition CDK1: 73 ± 3%
CDK2
  IC50: 6.1 µM
CDK2; [4]
  inhibition at 10 µM: 70 ± 1%
[1]
  insolubility in CDK2 assay: Insol

## Nc1nc(N)c(N=Nc2ccc(Cl)cc2)c(OCC2CCCCC2)n1 [NU6037]
CDK1 (p34 cdc2)/cyclin B; at 10 μM
  % inhibition CDK1: 3 ± 3%
CDK2; at 10 μM, read-out: % inhibition CDK2
  inhibition at 10 µM: 6 ± 4%
[1]
  insolubility in CDK2 assay: Insol

## CC(C)C(=O)COc1nc(N)nc2nc[nH]c12 [NU2056, O^6-(3-Methyl-2-oxobutyl)guanine]
CDK1 (p34 cdc2)/cyclin B
  IC50: 22 µM
CDK4
  IC50: 122 µM
CDK2; [3]
  inhibition at 100 µM: 33 ± 2%

## Nc1cc(OCc2ccccc2)nc(N)n1 [NU6038]
CDK1 (p34 cdc2)/cyclin B; at 100 μM
  % inhibition CDK1: 3 ± 3%
CDK2; [5]
  inhibition at 100 µM: 0%

## Nc1nc(OCc2cccnc2)c2nc[nH]c2n1 [NU6029, 2-Amino-6-(3'-pyridyl)methyloxypurine]
CDK1 (p34 cdc2)/cyclin B; at 100 μM
  % inhibition CDK1: 56 ± 4%
CDK2; [5]
  inhibition at 100 µM: 43 ± 4%

## Nc1nc(OCC2COc3ccccc3O2)c2nc[nH]c2n1 (stereo not shown) [NU6026, 2-amino-6-[1',4'-benzodioxanyl-2'-methyl]oxypurine]
CDK4
  IC50: > 100 µM
CDK2; at 10 μM
  % inhibition CDK2: 9%
CDK2; [4]
  inhibition at 10 µM: 12%
CDK2; [3]
  inhibition at 100 µM: 96%

## C=C(C)COc1nc(N)nc2[nH]cnc12 [NU2034, O^6-(2-Methylallyl)guanine]
CDK1 (p34 cdc2)/cyclin B
  IC50: 32 µM

## c1ccc(COc2ncnc3nc[nH]c23)cc1 [NU2002, 6-Benzyloxypurine]
CDK1 (p34 cdc2)/cyclin B
  IC50: 51 µM

## CCCCCCCOc1nc(N)nc2nc[nH]c12 [NU2064, 2-amino-6-heptyloxypurine]
CDK1 (p34 cdc2)/cyclin B
  IC50: 31 µM

## CO[C@@H]1O[C@H](COc2nc(N)nc3[nH]cnc23)[C@H]2OC(C)(C)O[C@@H]12 [NU6012, O^6 -Ribofuranosylguanine]
CDK1 (p34 cdc2)/cyclin B; at 100 μM
  % inhibition CDK1: 32%
CDK4
  IC50: > 100 µM
CDK2; [3]
  inhibition at 100 µM: 16 ± 5%
